Data taken from ChEMBL document CHEMBL1127356, “(Fluorocyclopropyl)quinolones. 2. Synthesis and Stereochemical structure-activity relationships of chiral 7-(7-amino-5-azaspiro[2.4]heptan-5-yl)-1-(2-fluorocyclopropyl)quinolone antibacterial agents” (J Med Chem, 1994).
≈ marks a conversion by molar mass, not a printed value.

Legend:
[1] = Urinary recovery by oral administration to rats in unchanged form of compound at 20 mg/kg; assay type: ADME, organism-based; set-up: dose 20 mg/kg, route oral; settings: rat, urine, read-out: Urinary recovery
[2] = system: Enterobacter cloacae; experiment: Minimum inhibitory concentration in vitro against […] (03400); assay type: functional
[3] = system: Escherichia coli; experiment: Minimum inhibitory concentration in vitro against Escherichia coli (NIHJ); assay type: functional
[4] = system: Enterococcus faecalis; experiment: Minimum inhibitory concentration in vitro against Streptococcus faecalis (ATCC 19433); assay type: functional
[5] = system: Staphylococcus aureus; experiment: Minimum inhibitory concentration in vitro against […] (209P); assay type: functional
[6] = system: Klebsiella pneumoniae; experiment: Minimum inhibitory concentration in vitro against Klebsiella pneumoniae (type-2); assay type: functional
[7] = Maximum concentration in plasma was determined by oral administration to rats at 20 mg/kg; assay type: ADME, organism-based; set-up: dose 20 mg/kg, route oral; settings: rat
[8] = system: Staphylococcus epidermidis; experiment: Minimum inhibitory concentration in vitro against […] (56556); assay type: functional
[9] = system: Pseudomonas aeruginosa; experiment: Minimum inhibitory concentration in vitro against Pseudomonas aeruginosa (32104); assay type: functional
[10] = system: Streptococcus pyogenes; experiment: Minimum inhibitory concentration in vitro against Streptococcus pyogenes (G36); assay type: functional
[11] = system: Serratia marcescens; experiment: Minimum inhibitory concentration in vitro against […]; assay type: functional
[12] = system: Rattus norvegicus; experiment: Urinary recovery by oral administration to rats in conjugate form of compound at 20 mg/kg; assay type: ADME, organism-based, Urine; set-up: dose 20 mg/kg, route oral; settings: in vivo
[13] = system: Proteus vulgaris; experiment: Minimum inhibitory concentration in vitro against Proteus vulgaris (08601); assay type: functional
[14] = system: Enterobacter cloacae; experiment: Minimum inhibitory concentration in vitro against Enterobacter cloacae (03400); assay type: functional
[15] = system: Staphylococcus aureus; experiment: Minimum inhibitory concentration in vitro against Staphylococcus aureus (209P); assay type: functional
[16] = system: Rattus norvegicus; experiment: Urinary recovery by oral administration to rats at 20 mg/kg in conjugate form of compound; assay type: ADME, organism-based, Urine; set-up: dose 20 mg/kg, route oral; settings: in vivo
[17] = Urinary recovery at 20 mg/kg was determined by oral administration to rats in unchanged form of compound; assay type: ADME, organism-based; set-up: dose 20 mg/kg, route oral; settings: rat, urine, read-out: Urinary recovery
[18] = system: Staphylococcus epidermidis; experiment: Minimum inhibitory concentration in vitro against Staphylococcus epidermis (56556); assay type: functional
[19] = system: Staphylococcus aureus; experiment: microbe, parasite or virus in culture
Description: Minimum inhibitory concentration against Streptococcus aureus (209P)

[20] = Escherichia coli, read-out: MIC
[21] = Enterococcus faecalis, ATCC 19433, read-out: MIC
[22] = Staphylococcus aureus, read-out: MIC
[23] = Klebsiella pneumoniae, read-out: MIC
[24] = Staphylococcus epidermidis, read-out: MIC
[25] = Pseudomonas aeruginosa, read-out: MIC
[26] = Streptococcus pyogenes, read-out: MIC
[27] = Serratia marcescens, read-out: MIC
[28] = Proteus vulgaris, read-out: MIC
[29] = Enterobacter cloacae, read-out: MIC

| Compound | MIC [3, 20] [mg/L] | MIC [4, 21] [mg/L] | MIC [5, 22] [mg/L] | MIC [6, 23] [mg/L] | MIC [8, 24] [mg/L] | MIC [9, 25] [mg/L] | MIC [10, 26] [mg/L] | MIC [11, 27] [mg/L] | MIC [13, 28] [mg/L] | MIC [14, 29] [mg/L] | MIC [6] [mg/L] | other results |
| --- | --- | --- | --- | --- | --- | --- | --- | --- | --- | --- | --- | --- |
| N[C@@H]1CCN(c2c(F)cc3c(=O)c(C(=O)O)cn(C4CC4)c3c2Cl)C1 | < 0.006 | 0.1 (≈ 0.273 µM) | 0.025 (≈ 0.0683 µM) | 0.025 (≈ 0.0683 µM) | 0.05 (≈ 0.137 µM) | 0.05 (≈ 0.137 µM) | 0.1 (≈ 0.273 µM) | 0.025 (≈ 0.0683 µM) | 0.006 (≈ 0.0164 µM) |  |  | dose excreted [1]: 24%; MIC [2]: 0.006 mg/L (≈ 0.0164 µM); Cmax [7]: 3.9 µg/mL; Urinary recovery [12]: 5% |
| N[C@@H]1CN(c2c(F)cc3c(=O)c(C(=O)O)cn(C4CC4)c3c2Cl)CC12CC2 | 0.05 (≈ 0.128 µM) | 0.39 (≈ 0.995 µM) | 0.1 (≈ 0.255 µM) | 0.05 (≈ 0.128 µM) | 0.1 (≈ 0.255 µM) | 0.39 (≈ 0.995 µM) | 0.78 (≈ 1.99 µM) | 0.1 (≈ 0.255 µM) | 0.05 (≈ 0.128 µM) | 0.05 (≈ 0.128 µM) |  |  |
| N[C@H]1CCN(c2c(F)cc3c(=O)c(C(=O)O)cn([C@H]4C[C@H]4F)c3c2Cl)C1 | 0.013 (≈ 0.0339 µM) | 0.2 (≈ 0.521 µM) | 0.025 (≈ 0.0651 µM) |  | 0.05 (≈ 0.13 µM) | 0.1 (≈ 0.261 µM) | 0.2 (≈ 0.521 µM) | 0.05 (≈ 0.13 µM) | 0.013 (≈ 0.0339 µM) | 0.025 (≈ 0.0651 µM) | 0.05 (≈ 0.13 µM) |  |
| N[C@H]1CN(c2c(F)cc3c(=O)c(C(=O)O)cn(C4CC4)c3c2Cl)CC12CC2 | < 0.006 | 0.1 (≈ 0.255 µM) | 0.013 (≈ 0.0332 µM) | 0.025 (≈ 0.0638 µM) | 0.025 (≈ 0.0638 µM) | 0.05 (≈ 0.128 µM) | 0.1 (≈ 0.255 µM) | 0.025 (≈ 0.0638 µM) | 0.006 (≈ 0.0153 µM) | 0.006 (≈ 0.0153 µM) |  | dose excreted [1]: 7%; Cmax [7]: 3.4 µg/mL; Urinary recovery [12]: 7% |
| NC1CCN(c2c(F)cc3c(=O)c(C(=O)O)cn([C@@H]4C[C@@H]4F)c3c2Cl)C1 (single isomer, unassigned) | 0.006 (≈ 0.0156 µM) | 0.2 (≈ 0.521 µM) |  | 0.05 (≈ 0.13 µM) |  | 0.05 (≈ 0.13 µM) | 0.1 (≈ 0.261 µM) | 0.025 (≈ 0.0651 µM) | 0.006 (≈ 0.0156 µM) | 0.006 (≈ 0.0156 µM) |  | MIC [15]: 0.013 mg/L (≈ 0.0339 µM); Urinary recovery [16]: 4%; dose excreted [17]: 12%; Cmax [7]: 2 µg/mL; MIC [18]: 0.05 mg/L (≈ 0.13 µM) |
| N[C@H]1CN(c2c(F)cc3c(=O)c(C(=O)O)cn(C4C[C@H]4F)c3c2Cl)CC12CC2 (single isomer, unassigned) | 0.05 (≈ 0.122 µM) | 0.39 (≈ 0.952 µM) | 0.1 (≈ 0.244 µM) | 0.1 (≈ 0.244 µM) | 0.2 (≈ 0.488 µM) | 0.78 (≈ 1.9 µM) | 0.2 (≈ 0.488 µM) | 0.5 (≈ 1.22 µM) | 0.05 (≈ 0.122 µM) | 0.05 (≈ 0.122 µM) |  |  |
| N[C@H]1CN(c2c(F)cc3c(=O)c(C(=O)O)cn(C4C[C@@H]4F)c3c2Cl)CC12CC2 (single isomer, unassigned) | 0.025 (≈ 0.061 µM) | 0.78 (≈ 1.9 µM) | 0.1 (≈ 0.244 µM) | 0.05 (≈ 0.122 µM) | 0.1 (≈ 0.244 µM) | 0.39 (≈ 0.952 µM) | 0.1 (≈ 0.244 µM) | 0.1 (≈ 0.244 µM) | 0.025 (≈ 0.061 µM) | 0.025 (≈ 0.061 µM) |  |  |
| N[C@@H]1CN(c2c(F)cc3c(=O)c(C(=O)O)cn(C4C[C@H]4F)c3c2Cl)CC12CC2 (single isomer, unassigned) | 0.013 (≈ 0.0317 µM) | 0.2 (≈ 0.488 µM) | 0.025 (≈ 0.061 µM) | 0.025 (≈ 0.061 µM) | 0.05 (≈ 0.122 µM) | 0.2 (≈ 0.488 µM) | 0.2 (≈ 0.488 µM) | 0.05 (≈ 0.122 µM) | 0.013 (≈ 0.0317 µM) | 0.013 (≈ 0.0317 µM) |  |  |
| NC1CN(c2c(F)cc3c(=O)c(C(=O)O)cn([C@@H]4C[C@@H]4F)c3c2Cl)CC12CC2 (single isomer, unassigned) [SITAFLOXACIN ANHYDROUS] | < 0.006 | 0.1 (≈ 0.244 µM) | 0.013 (≈ 0.0317 µM) | 0.025 (≈ 0.061 µM) | 0.025 (≈ 0.061 µM) | 0.05 (≈ 0.122 µM) | 0.05 (≈ 0.122 µM) | 0.025 (≈ 0.061 µM) | 0.006 (≈ 0.0146 µM) | 0.006 (≈ 0.0146 µM) |  | dose excreted [1]: 22%; Cmax [7]: 2.6 µg/mL; Urinary recovery [12]: 1% |
| N[C@@H]1CN(c2c(F)cc3c(=O)c(C(=O)O)cn(C4CC4F)c3c2Cl)CC12CC2 (stereo in doubt; 37) |  |  |  |  |  |  |  |  |  |  | 0.05 (≈ 0.122 µM) | MIC [3]: 0.006 mg/L (≈ 0.0146 µM); MIC [4]: 0.78 mg/L (≈ 1.9 µM); MIC [5]: 0.1 mg/L (≈ 0.244 µM); MIC [8]: 0.1 mg/L (≈ 0.244 µM); MIC [14]: 0.013 mg/L (≈ 0.0317 µM); MIC [9]: 0.39 mg/L (≈ 0.952 µM); MIC [10]: 0.39 mg/L (≈ 0.952 µM); MIC [11]: 0.1 mg/L (≈ 0.244 µM); MIC [13]: 0.025 mg/L (≈ 0.061 µM) |
| N[C@@H]1CN(c2c(F)cc3c(=O)c(C(=O)O)cn(C4CC4F)c3c2Cl)CC12CC2 (stereo in doubt; 38) |  |  |  |  |  |  |  | 0.2 (≈ 0.488 µM) |  |  | 0.2 (≈ 0.488 µM) | MIC [3]: 0.05 mg/L (≈ 0.122 µM); MIC [4]: 3.13 mg/L (≈ 7.64 µM); MIC [5]: 0.78 mg/L (≈ 1.9 µM); MIC [8]: 0.78 mg/L (≈ 1.9 µM); MIC [14]: 0.2 mg/L (≈ 0.488 µM); MIC [9]: 1.56 mg/L (≈ 3.81 µM); MIC [10]: 3.13 mg/L (≈ 7.64 µM); MIC [13]: 0.1 mg/L (≈ 0.244 µM) |
| N[C@H]1CN(c2c(F)cc3c(=O)c(C(=O)O)cn(C4CC4F)c3c2Cl)CC12CC2 (stereo in doubt; 39) |  |  |  |  |  |  |  |  |  |  | 0.39 (≈ 0.952 µM) | MIC [3]: 0.05 mg/L (≈ 0.122 µM); MIC [4]: 6.25 mg/L (≈ 15.3 µM); MIC [5]: 0.78 mg/L (≈ 1.9 µM); MIC [8]: 0.78 mg/L (≈ 1.9 µM); MIC [14]: 0.1 mg/L (≈ 0.244 µM); MIC [9]: 1.56 mg/L (≈ 3.81 µM); MIC [11]: 0.39 mg/L (≈ 0.952 µM); MIC [13]: 0.1 mg/L (≈ 0.244 µM) |
| N[C@H]1CN(c2c(F)cc3c(=O)c(C(=O)O)cn(C4CC4F)c3c2Cl)CC12CC2 (stereo in doubt; 40) |  | > 12.5 |  |  |  |  | > 12.5 | 0.78 (≈ 1.9 µM) |  |  | 1.56 (≈ 3.81 µM) | MIC [3]: 0.39 mg/L (≈ 0.952 µM); MIC [5]: 3.13 mg/L (≈ 7.64 µM); MIC [8]: 3.13 mg/L (≈ 7.64 µM); MIC [14]: 0.78 mg/L (≈ 1.9 µM); MIC [9]: 6.25 mg/L (≈ 15.3 µM); MIC [13]: 0.39 mg/L (≈ 0.952 µM) |
| O=C(O)c1cn(C2CC2)c2cc(N3CCNCC3)c(F)cc2c1=O [CIPROFLOXACIN] |  | 1.56 (≈ 4.71 µM) |  | 0.05 (≈ 0.151 µM) | 0.2 (≈ 0.604 µM) | 0.1 (≈ 0.302 µM) | 1.56 (≈ 4.71 µM) | 0.05 (≈ 0.151 µM) | 0.013 (≈ 0.0392 µM) |  |  | MIC [19]: 0.1 mg/L (≈ 0.302 µM) |
